Series [1] in a line: Turbidity, derived count rate of scattered light. It counts as physicochemical. Conditions: for Log Count Rate: log of derived count rate; for Count Rate: turbidity. The gist of the method:
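One-day room-temperature aggregation at 1 mg/mL in PBS (pH 7.4) preceded measurement; samples then went into 1 mM KCl. Triplicates per sample, two independent experiments averaged.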

The nature of series [2]: Zeta-potential measurement. Format: physicochemical. Conditions: for Zeta-pot. / mV: zeta potential of peptide, Fig S15 source data. The gist of the method: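 Surface charge of aggregated peptides: 1 mg/mL solutions in PBS (pH 7.4) incubated 1 d at RT, diluted into 1 mM KCl just before reading. Electrophoretic mobility converted to zeta potential by the Smoluchowski formula; triplicate measurements from two separate experiments averaged.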

In series [3] the test system is HIV-1 infection of TZM-bl cells. Put plainly: HIV-1 infectivity enhancement assay, β-galactosidase luminescence. Conditions: for Log10 Inf. rel. to EF-C: log10 of HIV-1 infection of TZM-bl cells relative to EF-C, Fig S15 source data, asymmetric std dev errors; for Rel-to EFC / n-fold to virus: Fig S8 panels B, D; for Rel-to EFC: infectivity enhancement relative to EF-C. It counts as cell-based.

Where [4] appears, read: derived count rate of scattered light, mean, std deviation in next column.
Where [5] appears, read: Feb2021, 1.3 µM value relative to virus only (0 µM).
The mark [6] stands for this setting: Feb2021, n-fold infectivity relative to EF-C.
The mark [7] stands for this setting: Feb2021, unrounded values of the 1.3 µM column.
Setting [8] is: Fig S8 panels A, C, asymmetric log errors.
Setting [9] is: Fig S8 panels B, D, derived count rate of scattered light.
The mark [10] stands for this setting: category 1 or 0 from count rate, key not given.
The mark [11] stands for this setting: derived count rate of scattered light, mean, std deviation in separate column.
The mark [12] stands for this setting: Feb2021, Log10 of infectivity relative to EF-C.
Where [13] appears, read: Feb2021, n-fold enhancement relative to EF-C.
[14] abbreviates: Feb2021 run, infectivity n-fold relative to virus alone.
The mark [15] stands for this setting: Feb2021 run, log10 of infectivity relative to EF-C.
The mark [16] stands for this setting: Feb2021 run, n-fold infectivity relative to EF-C.
The mark [17] stands for this setting: infectivity n-fold relative to virus alone.
[18] abbreviates: infectivity class (low / medium / high) of the peptide in the sequence-pattern analysis, Fig. S22-A4, class limits not given.

Like-named read-outs stand apart in the source and are kept apart here.

CRFRVPF [CN8]: in series [1] (category 1/0, no key printed), the “Zeta Count Rate Category” value stood at 0. For the same substance, the “Zeta Count Rate / kcps” value in series [1] (setting [4]) is recorded as 73.97 kcps. In series [2], the “Zeta category ( +1 = if > 4 mV;-1 = if < -4 mV; 0 = -4mV to 4 mV)” value (shortened to “Zeta category”) was 1 (+1 = if > 4 mV) and the “Zeta-pot. / mV” value is given as 4.413 mV. In addition, the “Zeta Pot. / mV” value in series [2] (mean, Std Zeta in next column) is reported as 4.413 mV. Also, in series [3] (setting [5]), the “n-fold to virus (Feb2021)” value is recorded as 0.837. In series [3] (Feb2021, log10 of infectivity relative to EF-C), the “Log10 of Rel to EFC (Feb2021)” value is listed as -1.701. Moreover, the “Rel-to EFC (Feb-2021)” value in series [3] (setting [6]) stood at 0.01992. Also, in series [3] (setting [7]), the “Absolute Infectivity / RLU /s (Feb2021)” value worked out at 376.7 RLU /s. In series [3] (infectivity class (low / medium / high) of each library peptide, main list in c1-c6, same classes repeated in sub-lists of sequences containing the hydrophobicity/charge patterns P+,H0,P+,H0,P0,H0,P0, P+,H0,P0,H0,P0,H0,P0, P+,H0,P0,H0), the infectivity entry was “low”. Further, the “Log10 Inf. rel. to EF-C” value in series [3] is reported as -1.701.

In the case of CKIKQIINMWQ [MG5a / CK17], the “Log Count Rate” value in series [1] (setting [8]) came out at 3.92; in series [1] (Fig S8 panels B, D), 3.92. For the same substance, in series [1] (setting [9]), the “Count Rate” value is given as 8316.83. Further, the “Zeta Count Rate Category” value came to 1 in series [1] (category 1 / 0, no key given); 1 in series [1] (setting [10]); 1 in series [1] (key not given). Moreover, the “Zeta Count Rate / kcps” value came to 8317 kcps in series [1] (derived count rate from zeta measurement, mean); 8317 kcps in series [1] (derived count rate of scattered light); 8317 kcps in series [1] (setting [4]); 8317 kcps in series [1] (setting [11]). Besides, the “Zeta Pot. / mV” value in series [2] was found to be 13.4 mV; in series [2] (mean, Std Zeta in next column), 13.4 mV; in series [2] (mean, Std in separate column) it was 13.4 mV. Besides, the “Zeta category” value in series [2] and in series [2] (category from zeta potential) was 1 (+1 = if > 4 mV) throughout. The “Zeta-pot. / mV” value in series [2] is 13.4 mV. The “Log10 of Rel to EFC (Feb2021)” value in series [3] (setting [12]) was determined as 0.09484; in series [3] (setting [15]) it was 0.09484; in series [3] (log10 of infectivity relative to EF-C, Feb2021 run), 0.09484. Further, in series [3] (Feb2021, figures match the 1.3 µM column), the “Absolute Infectivity / RLU /s (Feb2021)” value amounted to 23696.66667 RLU /s. The “n-fold to virus (Feb2021)” value is 52.27 in series [3] (Feb2021, infectivity relative to virus only); 52.27 in series [3] (setting [14]); 52.27 in series [3] (infectivity n-fold relative to virus only, Feb2021 run). Also, the “Rel-to EFC (Feb-2021)” value was 1.244 in series [3] (setting [13]); 1.244 in series [3] (setting [6]); 1.244 in series [3] (setting [16]); 1.244 in series [3] (infectivity enhancement relative to EF-C (=1), Feb2021 run). The “Rel-to EFC” value in series [3] is given as 1.244. Further, in series [3] (setting [17]), the n-fold to virus amounted to 52.27. Moreover, the infectivity entry in series [3] (setting [18]) is “high”. Moreover, the “Log10 Inf. rel. to EF-C” value in series [3] came to 0.09484.

As for CKFKFQF [BL4], the “Log Count Rate” value in series [1] (setting [8]) stood at 3.725; in series [1] (Fig S8 panels B, D), 3.725. Further, in series [1] (setting [9]), the “Count Rate” value came out at 5303.37. For the same substance, the “Zeta Count Rate Category” value in series [1] (category 1/0, no key printed) was found to be 1; in series [1] (setting [10]), 1. In addition, the “Zeta Count Rate / kcps” value in series [1] (setting [4]) and in series [1] (setting [11]) was 5303 kcps each time. In addition, the “Zeta category” value in series [2] and in series [2] (category from zeta potential) was 1 (+1 = if > 4 mV) in each case. Besides, the “Zeta Pot. / mV” value came out at 19.73 mV in series [2] (mean, Std Zeta in next column) and 19.73 mV in series [2] (mean, Std in separate column). For the same substance, the “Zeta-pot. / mV” value in series [2] was found to be 19.73 mV. Moreover, the “n-fold to virus (Feb2021)” value in series [3] (setting [5]) and in series [3] (setting [14]) was 51.79 throughout. Further, the “Log10 of Rel to EFC (Feb2021)” value in series [3] (setting [12]) and in series [3] (setting [15]) was 0.09083 in each case. Besides, the “Rel-to EFC (Feb-2021)” value in series [3] (setting [13]), in series [3] (setting [6]) and in series [3] (setting [16]) was 1.233 each time. The “Absolute Infectivity / RLU /s (Feb2021)” value in series [3] (setting [7]) came out at 20066.66667 RLU /s. Further, in series [3], the “Rel-to EFC” value amounted to 1.233. For the same substance, the n-fold to virus in series [3] (setting [17]) is on record as 51.79. Also, in series [3] (setting [18]), the infectivity entry was “high”. Moreover, in series [3], the “Log10 Inf. rel. to EF-C” value is given as 0.09083.

The values above are taken from PMC10447463, “Data-mining unveils structure–property–activity correlation of viral infectivity enhancing self-assembling peptides” (Nature Communications, 2023).
